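In this assay, cells in 96-well plates receive the compound at five concentrations for 48 hours. Endpoints are linearly interpolated between the surrounding concentrations. TGI marks complete inhibition of growth.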
Assays:
Assay in all cases: NCI anticancer screen, dose series, 48 h
A549 NSCLC = system: A549 NSCLC
NCI-H226 lung = system: NCI-H226 lung
SF-268 CNS = system: SF-268 CNS
HOP-62 NSCLC = system: HOP-62 NSCLC
DMS 114 small cell lung = system: DMS 114 small cell lung
CAKI-1 renal = system: CAKI-1 renal
KM12 colon = system: KM12 colon
786-0 renal = system: 786-0 renal
M14 melanoma = system: M14 melanoma
LOX IMVI melanoma = system: LOX IMVI melanoma
EKVX NSCLC = system: EKVX NSCLC
NCI-H460 lung = system: NCI-H460 lung
UACC-62 melanoma = system: UACC-62 melanoma
MOLT-4 leukemia = system: MOLT-4 leukemia
SNB-75 CNS = system: SNB-75 CNS
U251 CNS = system: U251 CNS
SR leukemia = system: SR leukemia
NCI-H522 lung = system: NCI-H522 lung
SK-MEL-2 melanoma = system: SK-MEL-2 melanoma
DMS 273 small cell lung = system: DMS 273 small cell lung
KM20L2 colon = system: KM20L2 colon
HL-60(TB) leukemia = system: HL-60(TB) leukemia
SK-OV-3 ovarian = system: SK-OV-3 ovarian
SW-620 colon = system: SW-620 colon
SK-MEL-5 melanoma = system: SK-MEL-5 melanoma
UO-31 renal = system: UO-31 renal
HCT-116 colon = system: HCT-116 colon
CCRF-CEM leukemia = system: CCRF-CEM leukemia
TK-10 renal = system: TK-10 renal
OVCAR-3 ovarian = system: OVCAR-3 ovarian
NCI-H23 lung = system: NCI-H23 lung
HOP-92 NSCLC = system: HOP-92 NSCLC
IGROV1 ovarian = system: IGROV1 ovarian
COLO 205 colon = system: COLO 205 colon
SF-539 CNS = system: SF-539 CNS
ACHN renal = system: ACHN renal
SN12C renal = system: SN12C renal
OVCAR-5 ovarian = system: OVCAR-5 ovarian
M19-MEL melanoma = system: M19-MEL melanoma
SNB-19 CNS = system: SNB-19 CNS
XF 498 CNS = system: XF 498 CNS
HCC-2998 colon = system: HCC-2998 colon
LXFL 529 NSCLC = system: LXFL 529 NSCLC
MALME-3M melanoma = system: MALME-3M melanoma
HCT-15 colon = system: HCT-15 colon
RPMI-8226 leukemia = system: RPMI-8226 leukemia
SK-MEL-28 melanoma = system: SK-MEL-28 melanoma
RXF 393 renal = system: RXF 393 renal
K-562 leukemia = system: K-562 leukemia
UACC-257 melanoma = system: UACC-257 melanoma
OVCAR-8 ovarian = system: OVCAR-8 ovarian
HT29 colon = system: HT29 colon
OVCAR-4 ovarian = system: OVCAR-4 ovarian
A498 renal = system: A498 renal
SF-295 CNS = system: SF-295 CNS
SNB-78 CNS = system: SNB-78 CNS
DLD-1 colon = system: DLD-1 colon

CC(c1ccc2c(c1)CCC1C2CC2OC23CC=CC(=O)[C@]13C)C1C[C@]2(C)O[C@]2(C)[C@H](O)O1 (stereo partly drawn)
TGI (A549 NSCLC): > 100 µM
TGI (NCI-H226 lung): 72 µM
TGI (SF-268 CNS): > 100 µM
TGI (HOP-62 NSCLC): 40.3 µM
TGI (DMS 114 small cell lung): 4.97 µM
TGI (CAKI-1 renal): 81.3 µM
TGI (KM12 colon): > 100 µM
TGI (786-0 renal): > 100 µM
TGI (M14 melanoma): 33.7 µM
TGI (LOX IMVI melanoma): > 100 µM
TGI (EKVX NSCLC): > 100 µM
TGI (NCI-H460 lung): > 100 µM
TGI (UACC-62 melanoma): > 100 µM
TGI (MOLT-4 leukemia): > 100 µM
TGI (SNB-75 CNS): > 100 µM
TGI (U251 CNS): 55.3 µM
TGI (SR leukemia): 53.6 µM
TGI (NCI-H522 lung): > 100 µM
TGI (SK-MEL-2 melanoma): > 100 µM
TGI (DMS 273 small cell lung): > 100 µM
TGI (KM20L2 colon): > 100 µM
TGI (HL-60(TB) leukemia): 71.9 µM
TGI (SK-OV-3 ovarian): > 100 µM
TGI (SW-620 colon): > 100 µM
TGI (SK-MEL-5 melanoma): 28.1 µM
TGI (UO-31 renal): > 100 µM
TGI (HCT-116 colon): > 100 µM
TGI (CCRF-CEM leukemia): > 100 µM
TGI (TK-10 renal): > 100 µM
TGI (OVCAR-3 ovarian): > 100 µM
TGI (NCI-H23 lung): 25.2 µM
TGI (HOP-92 NSCLC): > 100 µM
TGI (IGROV1 ovarian): > 100 µM
TGI (COLO 205 colon): > 100 µM
TGI (SF-539 CNS): > 100 µM
TGI (ACHN renal): > 100 µM
TGI (SN12C renal): > 100 µM
TGI (OVCAR-5 ovarian): > 100 µM
TGI (M19-MEL melanoma): > 100 µM
TGI (SNB-19 CNS): > 100 µM
TGI (XF 498 CNS): > 100 µM
TGI (HCC-2998 colon): > 100 µM
TGI (LXFL 529 NSCLC): > 100 µM
TGI (MALME-3M melanoma): > 100 µM
TGI (HCT-15 colon): > 100 µM
TGI (RPMI-8226 leukemia): > 100 µM
TGI (SK-MEL-28 melanoma): > 100 µM
TGI (RXF 393 renal): 50.5 µM
TGI (K-562 leukemia): > 100 µM
TGI (UACC-257 melanoma): 56.8 µM
TGI (OVCAR-8 ovarian): > 100 µM
TGI (HT29 colon): > 100 µM

COC(=O)[C@@]1(C)C(=O)CC[C@@H]1C=O
TGI (A549 NSCLC): > 100 µM
TGI (NCI-H226 lung): > 100 µM
TGI (SF-268 CNS): > 100 µM
TGI (HOP-62 NSCLC): > 100 µM
TGI (DMS 114 small cell lung): > 100 µM
TGI (CAKI-1 renal): > 100 µM
TGI (KM12 colon): > 100 µM
TGI (786-0 renal): > 100 µM
TGI (M14 melanoma): > 100 µM
TGI (LOX IMVI melanoma): > 100 µM
TGI (EKVX NSCLC): > 100 µM
TGI (NCI-H460 lung): > 100 µM
TGI (UACC-62 melanoma): > 100 µM
TGI (MOLT-4 leukemia): > 100 µM
TGI (U251 CNS): > 100 µM
TGI (SR leukemia): > 100 µM
TGI (NCI-H522 lung): > 100 µM
TGI (SK-MEL-2 melanoma): > 100 µM
TGI (KM20L2 colon): > 100 µM
TGI (OVCAR-4 ovarian): > 100 µM
TGI (A498 renal): > 100 µM
TGI (SF-295 CNS): > 100 µM
TGI (SNB-78 CNS): > 100 µM
TGI (HL-60(TB) leukemia): > 100 µM
TGI (SK-OV-3 ovarian): > 100 µM
TGI (SW-620 colon): > 100 µM
TGI (SK-MEL-5 melanoma): > 100 µM
TGI (UO-31 renal): > 100 µM
TGI (HCT-116 colon): > 100 µM
TGI (CCRF-CEM leukemia): > 100 µM
TGI (TK-10 renal): > 100 µM
TGI (OVCAR-3 ovarian): > 100 µM
TGI (DLD-1 colon): > 100 µM
TGI (NCI-H23 lung): > 100 µM
TGI (IGROV1 ovarian): > 100 µM
TGI (COLO 205 colon): > 100 µM
TGI (SF-539 CNS): > 100 µM
TGI (ACHN renal): > 100 µM
TGI (SN12C renal): > 100 µM
TGI (OVCAR-5 ovarian): > 100 µM
TGI (M19-MEL melanoma): > 100 µM
TGI (SNB-19 CNS): > 100 µM
TGI (XF 498 CNS): > 100 µM
TGI (LXFL 529 NSCLC): > 100 µM
TGI (MALME-3M melanoma): > 100 µM
TGI (HCT-15 colon): > 100 µM
TGI (RPMI-8226 leukemia): > 100 µM
TGI (K-562 leukemia): > 100 µM
TGI (UACC-257 melanoma): > 100 µM
TGI (OVCAR-8 ovarian): > 100 µM
TGI (HT29 colon): > 100 µM

Reference: PubChem BioAssay (NCI)
